Results published in patent US20110318768A1, “METHOD FOR DETERMINING SENSITIVITY OF TUMOR CELLS TO TYROSINE KINASE INHIBITOR AND COMPUTER PROGRAM PRODUCT” (SYSMEX CORPORATION, priority 2010, published 2011).
Read-outs that look alike come from different tables or passages of the source.

What was measured:
[1] = tested on: AU565 breast cancer cell line; experiment: Growth inhibition by lapatinib (Cell Titer-Glo); type: cell-based; details: Homo sapiens
Protocol: (§1) The sensitivity of cell lines to EGFR/HER2 inhibitor was examined by culturing breast cancer cell lines shown in Table 3 in the presence of EGFR/HER2 inhibitor and examining growth inhibition effects on the cell lines.
(§2) The breast cancer cell lines shown in Table 3 were seeded in a 96 well assay plate (#3917: Costar) at 4,000 cells/well, and cultured at 37° C. After 24 hours, the medium was changed to a medium containing a DMSO solution of lapatinib ditosylate hydrate (hereafter also referred to as lapatinib; #L-4804: LC Laboratories) with various concentrations, and the culture was continued at 37° C. for 72 hours. The concentrations of lapatinib in the medium were 0 (control), 0.1, 1, 10, 30, 100, 300, 1,000 and 3,000, and 10,000 nM. The concentration of DMSO in the medium is constant (0.1 (v/v) %) in all of the wells. The cell number in the wells at 0 and 72 hours after exchange of the medium was measured using Cell Titer-Glo Luminescent Cell Viability Assay (#G7571: Promega KK.). The lapatinib concentration to yield half the cell number of the control in 72 hours was determined by fitting with a logistic curve and the concentration was IC50. The cell line whose IC50 was less than 1 μM was defined as a “sensitive line”, while the cell line whose IC50 was 1 μM or more was defined as an “insensitive line”.

[2] = tested on: BT-20 breast cancer cell line; experiment: Growth inhibition by lapatinib (Cell Titer-Glo); type: cell-based; details: Homo sapiens
Protocol: as §1, §2

[3] = tested on: BT-474 breast cancer cell line; experiment: Growth inhibition by lapatinib (Cell Titer-Glo); type: cell-based; details: Homo sapiens
Protocol: as §1, §2

[4] = tested on: BT-483 breast cancer cell line; experiment: Growth inhibition by lapatinib (Cell Titer-Glo); type: cell-based; details: Homo sapiens
Protocol: as §1, §2

[5] = tested on: BT-549 breast cancer cell line; experiment: Growth inhibition by lapatinib (Cell Titer-Glo); type: cell-based; details: Homo sapiens
Protocol: as §1, §2

[6] = tested on: CAMA-1 breast cancer cell line; experiment: Growth inhibition by lapatinib (Cell Titer-Glo); type: cell-based; details: Homo sapiens
Protocol: as §1, §2

[7] = tested on: HCC1419 breast cancer cell line; experiment: Growth inhibition by lapatinib (Cell Titer-Glo); type: cell-based; details: Homo sapiens
Protocol: as §1, §2

[8] = tested on: HCC1428 breast cancer cell line; experiment: Growth inhibition by lapatinib (Cell Titer-Glo); type: cell-based; details: Homo sapiens
Protocol: as §1, §2

[9] = tested on: HCC1569 breast cancer cell line; experiment: Growth inhibition by lapatinib (Cell Titer-Glo); type: cell-based; details: Homo sapiens
Protocol: as §1, §2

[10] = tested on: HCC1806 breast cancer cell line; experiment: Growth inhibition by lapatinib (Cell Titer-Glo); type: cell-based; details: Homo sapiens
Protocol: as §1, §2

[11] = tested on: HCC1937 breast cancer cell line; experiment: Growth inhibition by lapatinib (Cell Titer-Glo); type: cell-based; details: Homo sapiens
Protocol: as §1, §2

[12] = tested on: HCC1954 breast cancer cell line; experiment: Growth inhibition by lapatinib (Cell Titer-Glo); type: cell-based; details: Homo sapiens
Protocol: as §1, §2

[13] = tested on: HCC202 breast cancer cell line; experiment: Growth inhibition by lapatinib (Cell Titer-Glo); type: cell-based
Protocol: as §1, §2

[14] = tested on: HS578T breast cancer cell line; experiment: Growth inhibition by lapatinib (Cell Titer-Glo); type: cell-based; details: Homo sapiens, Hs-578T
Protocol: as §1, §2

[15] = tested on: MCF7 breast cancer cell line; experiment: Growth inhibition by lapatinib (Cell Titer-Glo); type: cell-based; details: Homo sapiens
Protocol: as §1, §2

[16] = tested on: MDA-MB-157 breast cancer cell line; experiment: Growth inhibition by lapatinib (Cell Titer-Glo); type: cell-based; details: Homo sapiens
Protocol: as §1, §2

[17] = tested on: MDA-MB-231 breast cancer cell line; experiment: Growth inhibition by lapatinib (Cell Titer-Glo); type: cell-based; details: Homo sapiens
Protocol: as §1, §2

[18] = tested on: MDA-MB-415 breast cancer cell line; experiment: Growth inhibition by lapatinib (Cell Titer-Glo); type: cell-based; details: Homo sapiens
Protocol: as §1, §2

[19] = tested on: MDA-MB-435S breast cancer cell line; experiment: Growth inhibition by lapatinib (Cell Titer-Glo); type: cell-based; details: Homo sapiens
Protocol: as §1, §2

[20] = tested on: MDA-MB-436 breast cancer cell line; experiment: Growth inhibition by lapatinib (Cell Titer-Glo); type: cell-based; details: Homo sapiens
Protocol: as §1, §2

[21] = tested on: MDA-MB-453 breast cancer cell line; experiment: Growth inhibition by lapatinib (Cell Titer-Glo); type: cell-based; details: Homo sapiens
Protocol: as §1, §2

[22] = tested on: MDA-MB-468 breast cancer cell line; experiment: Growth inhibition by lapatinib (Cell Titer-Glo); type: cell-based; details: Homo sapiens
Protocol: as §1, §2

[23] = tested on: SK-BR-3 breast cancer cell line; experiment: Growth inhibition by lapatinib (Cell Titer-Glo); type: cell-based; details: Homo sapiens
Protocol: as §1, §2

[24] = tested on: T-47D breast cancer cell line; experiment: Growth inhibition by lapatinib (Cell Titer-Glo); type: cell-based; details: Homo sapiens, T47D
Protocol: as §1, §2

[25] = tested on: UACC-812 breast cancer cell line; experiment: Growth inhibition by lapatinib (Cell Titer-Glo); type: cell-based; details: Homo sapiens
Protocol: as §1, §2

[26] = tested on: UACC-893 breast cancer cell line; experiment: Growth inhibition by lapatinib (Cell Titer-Glo); type: cell-based; details: Homo sapiens
Protocol: as §1, §2

[27] = tested on: ZR-75-1 breast cancer cell line; experiment: Growth inhibition by lapatinib (Cell Titer-Glo); type: cell-based; details: Homo sapiens
Protocol: as §1, §2

[28] = tested on: ZR-75-30 breast cancer cell line; experiment: Growth inhibition by lapatinib (Cell Titer-Glo); type: cell-based; details: Homo sapiens
Protocol: as §1, §2

[29] = tested on: BT-474; details: Konecny et al.; cited from earlier work
[30] = tested on: SK-Br-3; details: Konecny et al.; cited from earlier work
[31] = tested on: MDA-MB231; details: Konecny et al.; cited from earlier work
[32] = tested on: MCF7; details: Konecny et al.; cited from earlier work
[33] = tested on: T47D; details: Konecny et al.; cited from earlier work
[34] = 72 hours culture, read-out: IC50
[35] = read-out: Reference example 1 Sensitivity to lapatinib

For CS(=O)(=O)CCNCc1ccc(-c2ccc3ncnc(Nc4ccc(OCc5cccc(F)c5)c(Cl)c4)c3c2)o1 [lapatinib, N-(3-chloro-4-[[(3-fluorophenyl)methyl]oxy]phenyl)-6-[5-([[2-(methylsulfonyl)ethyl]amino]methyl)-2-furanyl]-4-quinazolineamine bis(4-methylbenzenesulfonate)monohydrate], the IC50 [1, 34] was 0.157 µM, the IC50 [1, 35] was < 1 µM and the IC50 [2, 34] was > 10 µM. For the same molecule, the IC50 [2, 35] was ≥ 1 µM, the IC50 [3, 34] was 0.08 µM and the IC50 [3, 35] was < 1 µM. For the same molecule, the IC50 [4, 34] was > 10 µM, the IC50 [4, 35] was ≥ 1 µM and the IC50 [5, 34] was > 10 µM. The IC50 [5, 35] was ≥ 1 µM, the IC50 [6, 34] was > 10 µM and the IC50 [6, 35] was ≥ 1 µM. The IC50 [7, 34] was 0.124 µM, the IC50 [7, 35] was < 1 µM and the IC50 [8, 34] was > 10 µM. The IC50 [8, 35] was ≥ 1 µM, the IC50 [9, 34] was 4.82 µM and the IC50 [9, 35] was ≥ 1 µM. For the same molecule, the IC50 [10, 34] was > 10 µM, the IC50 [10, 35] was ≥ 1 µM and the IC50 [11, 34] was > 10 µM. The IC50 [11, 35] was ≥ 1 µM, the IC50 [12, 34] was 1.47 µM and the IC50 [12, 35] was ≥ 1 µM. The IC50 [13, 34] was 2.47 µM, the IC50 [13, 35] was ≥ 1 µM and the IC50 [14, 34] was > 10 µM. For the same molecule, the IC50 [14, 35] was ≥ 1 µM, the IC50 [15, 34] was > 10 µM and the IC50 [15, 35] was ≥ 1 µM. The IC50 [16, 34] was > 10 µM, the IC50 [16, 35] was ≥ 1 µM and the IC50 [17, 34] was > 10 µM. For the same molecule, the IC50 [17, 35] was ≥ 1 µM, the IC50 [18, 34] was > 10 µM and the IC50 [18, 35] was ≥ 1 µM. The IC50 [19, 34] was > 10 µM, the IC50 [19, 35] was ≥ 1 µM and the IC50 [20, 34] was > 10 µM. The IC50 [20, 35] was ≥ 1 µM, the IC50 [21, 34] was 0.309 µM and the IC50 [21, 35] was < 1 µM. For the same molecule, the IC50 [22, 34] was 3.78 µM, the IC50 [22, 35] was ≥ 1 µM and the IC50 [23, 34] was 0.315 µM. The IC50 [23, 35] was < 1 µM, the IC50 [24, 34] was > 10 µM and the IC50 [24, 35] was ≥ 1 µM. The IC50 [25, 34] was 0.49 µM, the IC50 [25, 35] was < 1 µM and the IC50 [26, 34] was 0.482 µM. For the same molecule, the IC50 [26, 35] was < 1 µM, the IC50 [27, 34] was > 10 µM and the IC50 [27, 35] was ≥ 1 µM. The IC50 [28, 34] was 0.211 µM, the IC50 [28, 35] was < 1 µM and the “lapatinib sensitivity of cell line” value [29] was “sensitive”. For the same molecule, the “lapatinib sensitivity of cell line” value [30] was “sensitive”, the “lapatinib sensitivity of cell line” value [31] was “insensitive” and the “lapatinib sensitivity of cell line” value [32] was “insensitive”. For the same molecule, the “lapatinib sensitivity of cell line” value [33] was “insensitive”.
